Consider 14 compounds from patent US6645957B2, “Cyclic amide compound” (Kowa Co., Ltd., priority 1998, dated 2003).

SMILES strings stand for the structures. Where a name gives a salt, the structure may show the parent alone.

In the assay the test system is production of IgE antibody. The assay can be described thus: Evaluation of inhibitory effect on production of IgE antibody (mouse splenic B cells, LPS + IL-4, ELISA). The format is cell-based. To be noted: B-cell, 168 h; test agent 10^−6 M; mouse (Balb/C) B cells cultured with LPS then mouse IL-4 for 7 days; IgE in culture supernatant by ELISA. As to the method:
A spleen was enucleated from a mouse (Balb/C, male, aged 8 weeks) and shredded in 0.3% BSA/HBSS to prepare single cells by means of a 200-mesh screen. Further, the single cells were hemolyzed by 0.75% ammonium chloride-17 mM Tris solution to prepare a splenocyte suspension (1×10^7/ml) using RPMI 1640 medium/25 mM HEPES/0.3% BSA. After the suspension was reacted with a rat anti-mouse Thy-1,2 monoclonal antibody (product of Cedarlane Co.) at 4° C. for 1 hour, the reaction mixture was centrifuged, and the sediment cells were suspended again (1×10^7/ml, RPMI/HEPES/BSA). After the suspension was then reacted with a low-cytotoxic rabbit complement (product of Cedarlane Co.) at 37° C. for 1 hour, killed cells were removed by specific gravity centrifugation using lympholyte M (product of Cedarlane Co.) to obtain a B cell fraction as viable cells.
After B cells (10^5/0.2 ml/well) were cultured for a day together with LPS (E. coli 026:B6, product of DIFCO Co.) using a 96-well plate, mouse IL-4 (product of Genzyme Co.) was added to conduct culture further for 7 days.
Each test agent was added on the first day of the culture, and the amount of IgE in a culture supernatant was measured by ELISA after the culture, thereby calculating out the inhibitory effect of the agent on the production of an IgE antibody.
In general terms: In an ELISA, binding on a coated surface is turned into a signal by an enzyme label.

On to `COc1cc(C#C/C=C/C(=O)N2CCC(CC(CC3CCN(C(=O)/C=C/C#Cc4cc(OC)c(OC)c(OC)c4)CC3)CN(C)C)CC2)cc(OC)c1OC` [Example 33, 1,3-bis[1-[(E)-5-(3,4,5-Trimethoxyphenyl)-2-penten-4-ynoyl]-4-piperidinyl]-2-[(dimethylamino)methyl]propane Hydrochloride], for which the inhibition (usually the relative decrease from the control value, in per cent) at 1 µM is 100%.

For the compound `COc1cc(-c2ccc(C(=O)N3CCN(Cc4ccc(CN5CCN(C(=O)c6ccc(-c7cc(OC)c(OC)c(OC)c7)cc6)CC5)cc4)CC3)cc2)cc(OC)c1OC` [Example 16, 1,4-bis[[4-[4-(3,4,5-Trimethoxyphenyl)benzoyl]-1-piperazinyl]methyl]benzene Dihydrochloride], the inhibition at 1 µM came out at 65%.

Regarding `COc1cc(-c2ccc(C(=O)N3CCCN(CCCN4CCCN(C(=O)c5ccc(-c6cc(OC)c(OC)c(OC)c6)cc5)CC4)CC3)cc2)cc(OC)c1OC` [Example 23, 1,1′-Trimethylenedi[4-[4-(3,4,5-trimethoxyphenyl)benzoyl]hexahydro-1,4-diazepine]dihydrochloride], the inhibition at 1 µM turned out to be 85%.

As for `COc1cc2ccc(/C=C/C(=O)N3CCC(CN(C)CC4CCN(C(=O)/C=C/c5ccc6cc(OC)c(OC)c(OC)c6c5)CC4)CC3)cc2c(OC)c1OC` [Example 36, N,N-bis[[1-[(E)-3-(6,7,8-Trimethoxy-2-naphthyl)-2-propenoyl]-4-piperidinyl]methyl]methylamine Hydrochloride], the inhibition at 1 µM amounted to 60%. The same measure for `COc1ccc(C(=O)N2CCC(CN3CCN(CC4CCN(C(=O)c5ccc(OC)c(-c6cc(OC)c(OC)c(OC)c6)c5)CC4)CC3)CC2)cc1-c1cc(OC)c(OC)c(OC)c1` [Example 40, 1,4-bis[[1-[4-Methoxy-3-(3,4,5-trimethoxyphenyl)benzoyl]-4-piperidinyl]methyl]piperazine Dihydrochloride]: 75%. For `COc1cc2c(cc1OC)C(C)(C)C(/C=C/C(=O)N1CCC(CCCC3CCN(C(=O)/C=C/C4=Cc5cc(OC)c(OC)cc5C4(C)C)CC3)CC1)=C2` [Example 27, 1,3-bis[1-[(E)-3-(5,6-Dimethoxy-1,1-dimethyl-2-indenyl)-2-propenoyl]-4-piperidinyl]propane], the inhibition at 1 µM was 100%.

In the case of `COc1cc(-c2ccc(C(=O)N3CCC(N(C)CCN(C)C4CCN(C(=O)c5ccc(-c6cc(OC)c(OC)c(OC)c6)cc5)CC4)CC3)cc2)cc(OC)c1OC` [Example 37, N,N′-bis[1-[4-(3,4,5-Trimethoxyphenyl)benzoyl]-4-piperidinyl]-N,N′-dimethylethylenediamine Dihydrochloride], the inhibition at 1 µM came to 100%.

Take `COc1cc(C#C/C=C/C(=O)N2CCN(CCCN3CCN(C(=O)/C=C/C#Cc4cc(OC)c(OC)c(OC)c4)CC3)CC2)cc(OC)c1OC` [Example 6, 1,3-bis[4-[(E)-5-(3,4,5-Trimethoxyphenyl)-2-penten-4-ynoyl]-1-piperazinyl]propane Dihydrochloride]: the inhibition at 1 µM was found to be 95%.

In the case of `O=C(/C=C/c1ccc2ccccc2c1)N1CCN(Cc2cccc(CN3CCN(C(=O)/C=C/c4ccc5ccccc5c4)CC3)n2)CC1` [Example 20, 2,6-bis[[4-[(E)-3-(2-Naphthyl)-2-propenoyl]-1-piperazinyl]methyl]pyridine], the inhibition at 1 µM is 75%. Regarding `COc1cc(-c2ccc(C(=O)N3CCN(CCCN4CCN(C(=O)c5ccc(-c6cc(OC)c(OC)c(OC)c6)cc5)CC4)CC3)cc2)cc(OC)c1OC` [Example 5, 1,3-bis[4-[4-(3,4,5-Trimethoxyphenyl)-benzoyl]-1-piperazinyl]propane Dihydrochloride], the inhibition at 1 µM stood at 95%.

As to `CSc1ncccc1/C=C/C=C/C(=O)N1CCN(CCCCCCCCN2CCN(C(=O)/C=C/C=C/c3cccnc3SC)CC2)CC1` [Example 13, 1,8-bis[4-[(E,E)-5-(2-Methylthio-3-pyridyl)-2,4-pentadienoyl]-1-piperazinyl]octane Dihydrochloride], the inhibition at 1 µM was determined as 95%. As to `COc1cc(/C=C/C=C/C(=O)N2CCN(CCCN3CCN(C(=O)/C=C/C=C/c4cc(OC)c(OC)c(OC)c4)CC3)CC2)cc(OC)c1OC` [Example 3, 1,3-bis[4-[(E,E)-5-(3,4,5-Trimethoxyphenyl)-2,4-pentadienoyl]-1-piperazinyl]propane Dihydrochloride], the inhibition at 1 µM was 100%. Consider `COc1cc(-c2cc(C(=O)N3CCC(CC(CC4CCN(C(=O)c5ccc(C)c(-c6cc(OC)c(OC)c(OC)c6)c5)CC4)N(C)C)CC3)ccc2C)cc(OC)c1OC` [Example 30, 1,3-bis[1-[4-Methyl-3-(3,4,5-trimethoxyphenyl)benzoyl]-4-piperidinyl]-2-(dimethylamino)propane Hydrochloride], for which the inhibition at 1 µM is 100%. To `CC(C)(C)c1ccc(/C=C/C=C/C(=O)N2CCN(CCCCCCCCN3CCN(C(=O)/C=C/C=C/c4ccc(C(C)(C)C)cc4)CC3)CC2)cc1` [Example 12, 1,8-bis[4-[(E,E)-5-(4-tert-Butylphenyl)-2,4-pentadienoyl]-1-piperazinyl]octane Dihydrochloride] belongs 90%.
